Results reported in paper PMC6264397, “Interaction of the Main Components from the Traditional Chinese Drug Pair Chaihu-Shaoyao Based on Rat Intestinal Absorption” (Molecules, 2011).
Several values for one entry are separate records, joined by “and”; a condition that tells them apart may be missing. Identical values can stand only once. Like-named read-outs stand apart in the source and are kept apart here. Each block holds one compound with its values, some of them ahead of it.

How the values were obtained:
[1] = system: Caco-2 cell; set-up: method as in earlier work; settings: cited from earlier work
[2] = system: rat intestine; assay: four-site single-pass perfused rat intestinal model; type: in vivo; set-up: P*eff Duodenum / P*eff Jejunum / P*eff Ileum: unit not given here
Procedure: The absorptions of SSA, SSD and paeoniflorin in different intestinal segments were studied by the rat intestinal perfusion model. The concentrations of all the compounds of interest were 20 μmol·L^−1. The concentrations of the compounds in the perfusate samples were analyzed by UPLC or LC/MS, and then the P*eff and […] of SSA, SSD and paeoniflorin were calculated.
The perfusion protocol was approved by the Animal Ethics Committee of Jiangsu Provincial Academy of Chinese Medicine. The intestinal surgical procedures were described in our previous publications. Briefly, rats were anesthetized with an intra-muscular injection of urethane (0.5 g mL^−1) and placed on a heated surface maintained at its normal body temperature. Four segments of intestine, duodenum, jejunum, ileum, and colon (8–12 cm) were simultaneously cannulated with no disruption of circulation to the intestine, each with two cannulae. After cannulation, the small intestinal segments were placed carefully into the abdominal cavity, avoiding crimping or kinking of the segments. To keep the temperature of the perfusate constant, the inlet cannulate was kept warm by a 37 °C circulating water bath.
This is a single-pass perfusion method. Four segments of the intestine (duodenum, upper jejunum, terminal ileum, and colon) were perfused simultaneously with a perfusate containing the compound of interest using an infusion pump (Harvard Apparatus, Cambridge, MA, USA) at a flow rate of 0.2 mL min^−1. After a 30-min washout period, which is usually sufficient to achieve the steady-state absorption, four samples were collected from the outlet cannulae every 30 min afterward. After perfusion, the length of the intestine was measured as described previously. The outlet concentrations of the test compounds in the luminal perfusate were determined by HPLC or LC/MS.
The outlet concentrations of SSA and SSD were determined by LC/MS using a HPLC-Agilent 6410 Triple Quad (Agilent, Palo Alto, CA, USA) system equipped with an atmospheric-pressure chemical ionization source. The samples were separated on a Zorbax SB-C18 column (250 mm × 4.6 mm, 5 μm, Agilent) and Zorbax SB-C18 precolumn (4.6 × 12.5 mm, […], Agilent). The mobile phase consisted of acetonitrile and water (40:60, v/v), and the flow rate was 0.4 mL·min^−1. The column temperature was maintained at 35 °C and the injection volume was 20 μL. For MS analysis, atmospheric-pressure chemical ionization (APCI) source was operated in the negative ion mode. The selected parameters were as follows: drying nitrogen gas at 350 °C and a flow-rate of […]; nebulizer pressure at 20 p.s.i.g. (1 p.s.i. = 6894.76 Pa); vaporizer temperature at 325 °C; capillary voltage at 4,500 V and corona current at 4 μA. The chromatograms obtained for quantitation were recorded under time-scheduled SIM, with fragmentor voltages was set at 150 V. The scan range was from m/z 250 to m/z 1,000. The instrument was programmed for a scan dwell time of 200 ms. Intense […] ions at m/z 781 and m/z 255 were shown for SSA (SSD) and chrysin(internal standard). In general, these methods were selective and reproducible with day to day variability of less than 3%. The tested linear response range for SSA and SSD was 0.625 to 80 μM. The accuracy and precision were greater than 98%. The recovery of three different concentrations was around 90.91%~92.66%, and RSD was less than 5% (n = 5).
UPLC was used to analyze the concentration of paeoniflorin in the perfusate samples. The conditions were as follows: Waters Acquity™ system, with diode array detector and Empower software; column, Acquity UPLC BEH C-18 1.7 μm, 50 × 2.1 mm, (Waters, Milford, MA, USA); mobile phase A, water; mobile phase B, acetonitrile; gradient, 0~0.8 min, 15~22% B, 0.8~1.0 min, 22% B, 1.0~1.5 min, 35% B, 1.5~2.2 min, 70% B; flow rate, 0.4 mL·min^−1; wavelength 230 nm (paeoniflorin) and 245 nm (testosterone, the internal standard); column temperature, 35 °C; injection volume, 10 μL. […]

[3] = co-administrated with SSA, colon
[4] = co-administrated with SSA, ileum
[5] = co-administration with SSD, colon
[6] = co-administration with SSD, ileum
[7] = compound alone, 20 μmol·L−1, colon, n = 4
[8] = compound alone, 20 μmol·L−1, duodenum, n = 4
[9] = compound alone, 20 μmol·L−1, ileum, n = 4
[10] = compound alone, 20 μmol·L−1, jejunum, n = 4

P*eff Colon ([2]; co-administrated with SSA (20:20 μmol·L−1), colon): 0.636 ± 0.034
P*eff Duodenum ([2]; co-administrated with SSA (20:20 μmol·L−1), duodenum): 0.279 ± 0.049
P*eff Ileum ([2]; co-administrated with SSA (20:20 μmol·L−1), ileum): 0.665 ± 0.053
P*eff Jejunum ([2]; co-administrated with SSA (20:20 μmol·L−1), jejunum): 0.263 ± 0.029
fold increase of 10% ABS vs individual compound [2, 3]: 1.25 fold
fold increase of P*eff vs individual compound [2, 3]: 1.90 fold
fold increase of 10% ABS vs individual compound [2, 4]: 1.40 fold
fold increase of P*eff vs individual compound [2, 4]: 2.11 fold and ~2.11 fold
P*eff Colon ([2]; co-administrated with SSD, colon): 0.696 ± 0.054
P*eff Duodenum ([2]; co-administrated with SSD, duodenum): 0.304 ± 0.048
P*eff Ileum ([2]; co-administrated with SSD, ileum): 0.731 ± 0.052
P*eff Jejunum ([2]; co-administrated with SSD, jejunum): 0.280 ± 0.051
10 cm % ABS Colon ([2]; co-administration with SSA (20:20 μmol·L−1), colon, n = 4): 12.07 ± 0.46 * %
10 cm % ABS Colon ([2]; co-administration with SSA (20:20 μmol·L−1), colon, n = 4, listed as paeoniflorin): 12.07 ± 0.46%
10 cm % ABS Duodenum ([2]; co-administration with SSA (20:20 μmol·L−1), duodenum, n = 4): 6.13 ± 1.82%
10 cm % ABS Ileum ([2]; co-administration with SSA (20:20 μmol·L−1), ileum, n = 4): 12.57 ± 0.36 * %
10 cm % ABS Ileum ([2]; co-administration with SSA (20:20 μmol·L−1), ileum, n = 4, listed as paeoniflorin): 12.57 ± 0.36%
10 cm % ABS Jejunum ([2]; co-administration with SSA (20:20 μmol·L−1), jejunum, n = 4): 4.78 ± 1.15%
fold increase of 10% ABS vs individual compound [2, 5]: 1.51 fold
fold increase of P*eff vs individual compound [2, 5]: 2.18 fold
10 cm % ABS Colon ([2]; co-administration with SSD, colon, n = 4): 13.48 ± 0.57 * %
10 cm % ABS Colon ([2]; co-administration with SSD, colon, n = 4, listed as paeoniflorin): 13.48 ± 0.57%
10 cm % ABS Duodenum ([2]; co-administration with SSD, duodenum, n = 4): 6.68 ± 1.91%
fold increase of 10% ABS vs individual compound [2, 6]: 1.63 fold
fold increase of P*eff vs individual compound [2, 6]: 2.42 fold and ~1.90 fold
10 cm % ABS Ileum ([2]; co-administration with SSD, ileum, n = 4): 13.75 ± 0.99 * %
10 cm % ABS Ileum ([2]; co-administration with SSD, ileum, n = 4, listed as paeoniflorin): 13.75 ± 0.99%
10 cm % ABS Jejunum ([2]; co-administration with SSD, jejunum, n = 4): 5.77 ± 1.39%
10 cm % ABS Colon [2, 7]: 5.37 ± 1.19%
P*eff Colon [2, 7]: 0.219 ± 0.051
P*eff Colon ([2]; compound alone, 20 μmol·L−1, colon, n = 4, listed as paeoniflorin): 0.219
10 cm % ABS Duodenum [2, 8]: 6.57 ± 0.98%
P*eff Duodenum [2, 8]: 0.268 ± 0.042
P*eff Duodenum ([2]; compound alone, 20 μmol·L−1, duodenum, n = 4, listed as paeoniflorin): 0.268
10 cm % ABS Ileum [2, 9]: 5.23 ± 0.49%
P*eff Ileum [2, 9]: 0.214 ± 0.021
P*eff Ileum ([2]; compound alone, 20 μmol·L−1, ileum, n = 4, listed as paeoniflorin): 0.214
10 cm % ABS Jejunum [2, 10]: 5.94 ± 0.70%
P*eff Jejunum [2, 10]: 0.243 ± 0.030
P*eff Jejunum ([2]; compound alone, 20 μmol·L−1, jejunum, n = 4, listed as paeoniflorin): 0.243
Compound: C[C@@]12C[C@@]3(O)O[C@@H](O1)[C@]1(COC(=O)c4ccccc4)[C@H]3C[C@@]12O[C@@H]1O[C@H](CO)[C@@H](O)[C@H](O)[C@H]1O [Paeoniflorin, paeoniflorin]
change of electric resistance values of Caco-2 cell membranes ([1]; after individual paeoniflorin was transported): no significant change
change of electric resistance values of Caco-2 cell membranes ([1]; paeoniflorin co-administered with saikosaponins): significantly decreased

P*eff Colon ([2]; co-administrated with paeoniflorin (20:20 μmol·L−1), colon): 0.215 ± 0.030
P*eff Duodenum ([2]; co-administrated with paeoniflorin (20:20 μmol·L−1), duodenum): 0.193 ± 0.028
P*eff Ileum ([2]; co-administrated with paeoniflorin (20:20 μmol·L−1), ileum): 0.347 ± 0.036
P*eff Jejunum ([2]; co-administrated with paeoniflorin (20:20 μmol·L−1), jejunum): 0.194 ± 0.023
10 cm % ABS Colon ([2]; co-administration with paeoniflorin (20:20 μmol·L−1), colon, n = 4): 3.51 ± 0.73%
10 cm % ABS Duodenum ([2]; co-administration with paeoniflorin (20:20 μmol·L−1), duodenum, n = 4): 4.11 ± 0.30%
10 cm % ABS Ileum ([2]; co-administration with paeoniflorin (20:20 μmol·L−1), ileum, n = 4): 5.20 ± 0.67%
10 cm % ABS Jejunum ([2]; co-administration with paeoniflorin (20:20 μmol·L−1), jejunum, n = 4): 3.49 ± 0.61%
10 cm % ABS Colon [2, 7]: 3.84 ± 0.10%
P*eff Colon [2, 7]: 0.239 ± 0.042
10 cm % ABS Duodenum [2, 8]: 3.75 ± 0.57%
P*eff Duodenum [2, 8]: 0.193 ± 0.028
10 cm % ABS Ileum [2, 9]: 6.26 ± 0.56 * %
P*eff Ileum [2, 9]: 0.361 ± 0.014 *
10 cm % ABS Jejunum [2, 10]: 3.91 ± 0.60%
P*eff Jejunum [2, 10]: 0.207 ± 0.012
Compound: C[C@H]1O[C@@H](O[C@H]2CC[C@@]3(C)[C@@H](CC[C@]4(C)[C@@H]3C=C[C@]35OC[C@@]6(CCC(C)(C)C[C@H]63)[C@@H](O)C[C@]54C)[C@]2(C)CO)[C@H](O)[C@@H](O[C@@H]2O[C@H](CO)[C@@H](O)[C@H](O)[C@H]2O)[C@H]1O [SSA, saikosaponin a]
